The AC50 is the concentration at which the activity in the assay is half-maximal.

Records with an inconclusive call do not appear. Calls of active or inactive are those of the source.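 The calls were made as follows: active = compound lowering the normal-ribosome reporter at least twice as much as the humanized-ribosome reporter, growth loss under a set limit; inconclusive = no clear call, values can overlap the other calls; inactive = the rest.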 Some results are limits rather than exact numbers.

This note sets out measurements from PubChem BioAssay AID977628 (Broad Institute, 2014).

Test [1] relates to E. coli WT GFP strain growth, fluorescence, 24 h. Put plainly: E. coli growth inhibition, wild-type GFP versus h24 humanized RFP strain, dose response, h24 mutant RFP vs wild-type GFP, cherry-pick (AID 977628).
The test system of test [2] is E. coli mixed WT/h24 culture total growth, OD600, 24 h. Described as above.

As to `O=C(COC(=O)C12CC3CC(CC(O)(C3)C1)C2)NCCc1ccc(Cl)cc1`, the AC50 in test [1] was > 100 µM (inactive); in test [2], > 100 µM.

Turning to `COc1ccc(N(C)S(=O)(=O)c2cccc(C(=O)NC3CCCCC3C)c2)cc1` (stereo not drawn), the AC50 in test [1] was > 100 µM (inactive); in test [2] it was 47.7 µM.

With `CC(=O)Nc1ccc(-c2ccnc3c2CC(C)(C(=O)Nc2ccc4c(c2)OCO4)O3)cc1` (stereo not drawn), the AC50 in test [1] is > 100 µM (inactive); in test [2], > 100 µM.

For the compound `CCOc1ccc2oc(C(=O)NC3CCN(Cc4ccccc4)CC3)c(C)c2c1`, the AC50 was > 100 µM (inactive) in test [1] and > 100 µM in test [2].

Consider `CCCN(CC1CC1)C(=O)CSc1ncnc2sccc12`, for which the AC50 is > 100 µM (inactive) in test [1] and > 100 µM in test [2].

For `COc1ccc(C(=O)Nc2ccc3oc(Cc4ccc(Cl)cc4)nc3c2)cc1OC`, the AC50 in test [1] is > 100 µM (inactive); in test [2] it was > 100 µM.

In the case of `CCN(CC)CC(=O)Nc1ccc(-c2ccc(NC(=O)CN(CC)CC)c(OC)c2)cc1OC`, the figures for the AC50 in test [1] and in test [2] were > 100 µM (inactive) and > 100 µM, respectively.

Regarding `Brc1cc2c(cc1Br)OCCOCCOCCO2`, the results for the AC50 in test [1] and in test [2] were > 100 µM (inactive) and > 100 µM, respectively.

For the compound `CCOC(=O)C(CC)Sc1cc(C)nc2ccc(OC)cc12` (stereo not drawn), the AC50 in test [1] is > 100 µM (inactive); in test [2], > 100 µM.

On to `O=C(CSc1ccc(-c2cccnc2)nn1)N1CCCc2ccccc21`, for which the results for the AC50 in test [1] and in test [2] were > 100 µM (inactive) and > 100 µM, respectively.

On to `Clc1cccc(OCc2nc(-c3ccncc3)n[nH]2)c1`, for which the AC50 was > 100 µM (inactive) in test [1] and > 100 µM in test [2].

As for `O=C(Nc1cccc(Cl)c1)N1C[C@@H]2[C@H](c3ccccc31)[C@H](CO)N2Cc1ccncc1`, the AC50 in test [1] was > 100 µM (inactive); in test [2], > 100 µM.

As to `O=C(Cc1coc2cc(O)ccc12)N1CCN(S(=O)(=O)c2ccc(Br)cc2)CC1`, the AC50 in test [1] was > 100 µM (inactive); in test [2] it was 50.5 µM.

For the compound `CCSc1nc2ccccc2c(=O)n1Cc1ccc(F)cc1`, the AC50 in test [1] was > 100 µM (inactive); in test [2], 45.7 µM.

Consider `COc1ccc(NC(=O)CCS(=O)(=O)c2ccccc2Cl)cc1S(=O)(=O)Nc1ccc(Cl)cc1`, for which the AC50 is > 100 µM (inactive) in test [1] and > 100 µM in test [2].

As to `Cc1ccccc1CSCC(=O)Nc1ccccc1F`, the values for the AC50 in test [1] and in test [2] were > 100 µM (inactive) and > 100 µM, respectively.

`Cc1onc(-c2ccccc2)c1-c1nnc(-c2ccccc2C(F)(F)F)o1`: the values for the AC50 in test [1] and in test [2] were > 100 µM (inactive) and > 100 µM, respectively.

Consider `O=C(Nc1ccc2c(c1)OCO2)c1cccc(S(=O)(=O)N2CCCC2)c1`, for which the results for the AC50 in test [1] and in test [2] were > 100 µM (inactive) and > 100 µM, respectively.

With `O=S(=O)(Nc1ccc(-c2nc3cccnc3s2)cc1)c1cc(F)ccc1F`, the AC50 is > 100 µM (inactive) in test [1] and > 100 µM in test [2].

As for `O=C(Cc1cccc(NC(=O)C2CCCN(C(=O)CCc3ccccc3)C2)c1)Nc1cccc(C(=O)N2CCCC2)c1` (stereo not drawn), the AC50 is > 100 µM (inactive) in test [1] and > 100 µM in test [2].

For the compound `Cc1c(C(=O)O)oc2ccc(S(=O)(=O)NC3CCCCCCC3)cc12`, the AC50 in test [1] is > 100 µM (inactive); in test [2] it was 41.4 µM.

Consider `Cc1ccc(CNC(=O)c2ccc(Br)o2)cc1`, for which the AC50 in test [1] is > 100 µM (inactive); in test [2], > 100 µM.

Turning to `CCCCNC(=O)c1onc(CSc2cc(C)cc(C)c2)c1C(=O)O`, the AC50 was > 100 µM (inactive) in test [1] and 28 µM in test [2].

Take `COc1ccc(CC(=O)NCc2csc(-c3cccs3)n2)cc1OC`: the AC50 was > 100 µM (inactive) in test [1] and > 100 µM in test [2].

For `CCCN(CC(=O)Nc1ccccc1C)C(=O)c1cccc(S(=O)(=O)N2CCc3ccccc3C2)c1`, the AC50 was > 100 µM (inactive) in test [1] and 51.9 µM in test [2].

Take `CCOc1ccc(CCNC(=O)CCc2nc3ccccc3[nH]2)cc1OCC`: the values for the AC50 in test [1] and in test [2] were > 100 µM (inactive) and > 100 µM, respectively.

With `COc1ccc(C2=Nc3ccccc3NC(=O)C2N(C(=O)c2ccnc3ccccc23)c2ccccc2)cc1` (stereo not drawn), the AC50 in test [1] is > 100 µM (inactive); in test [2] it was 43 µM.

With `O=C(Nc1ccc2nc3n(c(=O)c2c1)CCCCC3)c1c(F)ccc([N+](=O)[O-])c1F`, the results for the AC50 in test [1] and in test [2] were > 100 µM (inactive) and > 100 µM, respectively.

As to `CN1c2ccc(C#Cc3cccnc3)cc2[C@@H]2[C@@H](CCN2C(=O)c2cccc(F)c2)[C@H]1CO`, the results for the AC50 in test [1] and in test [2] were > 100 µM (inactive) and > 100 µM, respectively.

With `CC(C)Cn1c(=O)c2ccccc2c2ccccc2c1=O`, the figures for the AC50 in test [1] and in test [2] were > 100 µM (inactive) and > 100 µM, respectively.

On to `Cc1ccc(NC(=O)c2cccs2)cc1[N+](=O)[O-]`, for which the AC50 in test [1] was > 100 µM (inactive); in test [2] it was > 100 µM.

Take `CCN(CC(=O)Nc1cccc(C#N)c1)CC(=O)Nc1cccc(OC)c1`: the AC50 in test [1] was > 100 µM (inactive); in test [2] it was > 100 µM.

As for `Cc1ccc(NC(=O)CN(C)S(=O)(=O)c2cccc3cccnc23)cc1F`, the AC50 was > 100 µM (inactive) in test [1] and > 100 µM in test [2].

Consider `Cc1ccc(C)c(-c2[nH]ncc2CN2CCCC(CO)(Cc3ccccc3C)C2)c1` (stereo not drawn), for which the AC50 is > 100 µM (inactive) in test [1] and > 100 µM in test [2].

Turning to `CC(C)(C)c1ccc2c(c1)C(c1ccc3c(c1)OCO3)CC(=O)O2` (stereo not drawn), the AC50 in test [1] was > 100 µM (inactive); in test [2], > 100 µM.

For the compound `CCOc1cccc2sc(NC(=O)CC)nc12`, the AC50 was > 100 µM (inactive) in test [1] and > 100 µM in test [2].

In the case of `CC(=O)c1c(C)nn(CC(O)COc2ccc3c(c2)CCC3)c1C` (stereo not drawn), the results for the AC50 in test [1] and in test [2] were > 100 µM (inactive) and 50.1 µM, respectively.

As to `CCCNC(=O)c1cc(C2CCCN(S(=O)(=O)c3cccc4cccnc34)C2)on1` (stereo not drawn), the AC50 is > 100 µM (inactive) in test [1] and > 100 µM in test [2].

`CCn1c(CNC(=O)c2ccccc2F)cc2cc(C)ccc21`: the AC50 in test [1] was > 100 µM (inactive); in test [2], > 100 µM.

Turning to `COc1ccc(-c2nc3ccc(Cl)cn3c2Cc2cccc(F)c2)cc1OC`, the AC50 was > 100 µM (inactive) in test [1] and 51.6 µM in test [2].

Regarding `O=C(COc1ccc(Cl)cc1)Nc1ncc([N+](=O)[O-])s1`, the AC50 is > 100 µM (inactive) in test [1] and 40.2 µM in test [2].

As to `CCn1cc(Cl)c(C(=O)Nc2cccc(C(F)(F)F)c2)n1`, the AC50 in test [1] is > 100 µM (inactive); in test [2], > 100 µM.

`NS(=O)(=O)c1cccc(NC(=O)CSc2nc3ccccc3n2-c2ccccc2)c1`: the AC50 in test [1] is > 100 µM (inactive); in test [2] it was 38.1 µM.

As for `CCc1ccc(NC(=O)COC(=O)CCCC2=NS(=O)(=O)c3ccccc3N2)cc1`, the AC50 in test [1] was > 100 µM (inactive); in test [2] it was > 100 µM.

Consider `Cc1cc(CNC(=O)COc2ccc(C)c(C)c2)c2ccccc2n1`, for which the AC50 was > 100 µM (inactive) in test [1] and 39 µM in test [2].

Regarding `Cc1cc(NC(=O)CSc2nccn2-c2cccc(C)c2C)no1`, the AC50 in test [1] was > 100 µM (inactive); in test [2], > 100 µM.

For the compound `Nc1[nH]c(C(=O)c2ccccc2)c(-c2ccc(Br)cc2)c1C(=O)c1cccs1`, the AC50 in test [1] was > 100 µM (inactive); in test [2], > 100 µM.

On to `COc1ccc(OCC(=O)N2c3ccccc3CC2C)c([N+](=O)[O-])c1` (stereo not drawn), for which the results for the AC50 in test [1] and in test [2] were > 100 µM (inactive) and > 100 µM, respectively.

In the case of `Cc1cccc(-c2ccc([C@H]3[C@H](CO)N4CCCCN(S(=O)(=O)c5ccccc5C)C[C@@H]34)cc2)c1`, the AC50 is > 100 µM (inactive) in test [1] and > 100 µM in test [2].

On to `CCN(c1ccccc1)S(=O)(=O)c1ccc(Cl)c(C(=O)NCc2ccco2)c1`, for which the figures for the AC50 in test [1] and in test [2] were > 100 µM (inactive) and 38.5 µM, respectively.

For `CN(C)C(=O)c1ccc(NC(=O)CSc2nc3ccccc3[nH]2)cc1`, the AC50 was > 100 µM (inactive) in test [1] and > 100 µM in test [2].

For the compound `CCOc1ccc(OCC)c(NC(=O)CSc2nc3c(c(=O)n(C)c(=O)n3C)n2C(C)C)c1`, the AC50 is > 100 µM (inactive) in test [1] and 45.5 µM in test [2].

In the case of `Cc1cccc(Nc2nc(-c3ccc(F)cc3)cs2)n1`, the AC50 in test [1] is > 100 µM (inactive); in test [2], > 100 µM.

In the case of `CN(C)CCCN(C(=O)c1ccc(S(=O)(=O)N(C)Cc2ccccc2)cc1)c1nc2c(F)cccc2s1`, the AC50 was > 100 µM (inactive) in test [1] and 39.3 µM in test [2].

Turning to `Cc1cc(C(N)=O)nn1-c1c(Cl)cc(Cl)cc1Cl`, the AC50 in test [1] is > 100 µM (inactive); in test [2], > 100 µM.

As for `CC(C)Oc1cccc(C(=O)C2CCCN(C(=O)c3cc(C(F)(F)F)[nH]n3)C2)c1` (stereo not drawn), the AC50 in test [1] is > 100 µM (inactive); in test [2] it was 51.3 µM.

As for `CCOC(=O)c1c(C)nsc1NCc1ccccc1`, the AC50 in test [1] was > 100 µM (inactive); in test [2] it was 30.9 µM.

As for `CCOc1cccc2sc(N(CCCN(C)C)C(=O)c3ccc(S(=O)(=O)N4CCCCCC4)cc3)nc12`, the AC50 in test [1] is > 100 µM (inactive); in test [2], > 100 µM.

With `Cc1cc(C(=O)COC(=O)c2ccc(Br)o2)c(C)n1C`, the results for the AC50 in test [1] and in test [2] were > 100 µM (inactive) and 42.5 µM, respectively.

In the case of `Cc1cccc(C)c1-n1nnnc1C1(C)CCC(=O)N1Cc1cccs1` (stereo not drawn), the AC50 in test [1] was > 100 µM (inactive); in test [2] it was > 100 µM.

As to `O=C(Nc1cccc(S(=O)(=O)N2CCCCC2)c1)c1ccc(Cl)nc1`, the AC50 was > 100 µM (inactive) in test [1] and > 100 µM in test [2].

Regarding `COc1ccc(-c2nnn(CC(=O)N3CCN(c4ccccc4OC)CC3)n2)cc1OC`, the AC50 in test [1] is > 100 µM (inactive); in test [2], > 100 µM.

Take `Cc1cc(C)n(CC(O)COc2ccc3ccccc3c2)n1` (stereo not drawn): the AC50 is > 100 µM (inactive) in test [1] and > 100 µM in test [2].

`Cc1ccc(OCCn2c(=S)[nH]c3c(N)ncnc32)cc1`: the AC50 in test [1] is > 100 µM (inactive); in test [2] it was 34.3 µM.
